Source: ChEMBL document CHEMBL1201862, “PubChem BioAssay data set” (2004)
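1) Cells in 96-well plates. 2) Compound, 48 h, 5 concentrations. 3) Linear interpolation between surrounding doses. 4) Unreached endpoint = highest concentration. Abbreviation: GI50, concentration required for 50% inhibition of growth.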 The source made the active and inactive calls. No stated cut-off is given here; in the data, active = GI50 up to about 1.1 µM and inactive = higher.

Experiments:
Assay in all cases: DTP human tumour cell line panel, 48 h
NCI-H460 = system: NCI-H460
CAKI-1 = system: CAKI-1
SK-MEL-2 = system: SK-MEL-2
MDA-N = system: MDA-N
SK-MEL-28 = system: SK-MEL-28
LOX IMVI = system: LOX IMVI
OVCAR-8 = system: OVCAR-8
HCC 2998 = system: HCC 2998
NCI/ADR-RES = system: NCI/ADR-RES
HOP-62 = system: HOP-62
SK-MEL-5 = system: SK-MEL-5
BT-549 = system: BT-549
SF-295 = system: SF-295
NCI-H226 = system: NCI-H226
UACC-62 = system: UACC-62
Malme-3M = system: Malme-3M
UO-31 = system: UO-31
HT-29 = system: HT-29
TK-10 = system: TK-10
HL-60 = system: HL-60
K562 = system: K562
MCF7 = system: MCF7
IGROV-1 = system: IGROV-1
SNB-75 = system: SNB-75
CCRF-CEM = system: CCRF-CEM
Hs-578T = system: Hs-578T
U-251 = system: U-251
SK-OV-3 = system: SK-OV-3
NCI-H23 = system: NCI-H23
RPMI-8226 = system: RPMI-8226
ACHN = system: ACHN
SW-620 = system: SW-620
NCI-H522 = system: NCI-H522
EKVX = system: EKVX
MDA-MB-231 = system: MDA-MB-231
SN12C = system: SN12C
PC-3 = system: PC-3
UACC-257 = system: UACC-257
HCT-116 = system: HCT-116
OVCAR-5 = system: OVCAR-5
KM12 = system: KM12
OVCAR-3 = system: OVCAR-3
DU-145 = system: DU-145
COLO 205 = system: COLO 205
MDA-MB-435 = system: MDA-MB-435
RXF 393 = system: RXF 393
786-0 = system: 786-0
A549 = system: A549
OVCAR-4 = system: OVCAR-4
HCT-15 = system: HCT-15
M14 = system: M14
SR = system: SR
HOP-92 = system: HOP-92
SF-539 = system: SF-539
SNB-19 = system: SNB-19
SF-268 = system: SF-268
A498 = system: A498
MOLT-4 = system: MOLT-4
T47D = system: T47D

## COC(=O)[C@]12CC3C=CC1N(C3)C(CBr)c1c2n(S(=O)(=O)c2ccccc2)c2ccccc12 (stereo not given in full)
NCI-H460
  GI50: 98.6 µM (inactive)
CAKI-1
  GI50: 74.6 µM (inactive)
SK-MEL-2
  GI50: 79.4 µM (inactive)
MDA-N
  GI50: 60.1 µM (inactive)
SK-MEL-28
  GI50: > 100 µM (inactive)
LOX IMVI
  GI50: 43.4 µM (inactive)
OVCAR-8
  GI50: 49 µM (inactive)
HCC 2998
  GI50: > 100 µM (inactive)
NCI/ADR-RES
  GI50: > 100 µM (inactive)
HOP-62
  GI50: 92.3 µM (inactive)
SK-MEL-5
  GI50: > 100 µM (inactive)
BT-549
  GI50: > 100 µM (inactive)
SF-295
  GI50: 42.2 µM (inactive)
NCI-H226
  GI50: 41.7 µM (inactive)
UACC-62
  GI50: 57.3 µM (inactive)
Malme-3M
  GI50: 72.9 µM (inactive)
UO-31
  GI50: > 100 µM (inactive)
HT-29
  GI50: 45.3 µM (inactive)
TK-10
  GI50: > 100 µM (inactive)
HL-60
  GI50: 35.1 µM (inactive)
K562
  GI50: 0.118 µM (active)
MCF7
  GI50: 46.9 µM (inactive)
IGROV-1
  GI50: 72.9 µM (inactive)
SNB-75
  GI50: 25.9 µM (inactive)
CCRF-CEM
  GI50: 47.6 µM (inactive)
Hs-578T
  GI50: 39.9 µM (inactive)
U-251
  GI50: 63 µM (inactive)
SK-OV-3
  GI50: > 100 µM (inactive)
NCI-H23
  GI50: 51.5 µM (inactive)
RPMI-8226
  GI50: 0.292 µM (active)
ACHN
  GI50: 48.3 µM (inactive)
SW-620
  GI50: > 100 µM (inactive)
NCI-H522
  GI50: 27.9 µM (inactive)
EKVX
  GI50: 80 µM (inactive)
MDA-MB-231
  GI50: 57.1 µM (inactive)
SN12C
  GI50: > 100 µM (inactive)
PC-3
  GI50: 42.8 µM (inactive)
UACC-257
  GI50: > 100 µM (inactive)
HCT-116
  GI50: 47.9 µM (inactive)
OVCAR-5
  GI50: > 100 µM (inactive)
KM12
  GI50: > 100 µM (inactive)
OVCAR-3
  GI50: 97.7 µM (inactive)
DU-145
  GI50: > 100 µM (inactive)
COLO 205
  GI50: > 100 µM (inactive)
MDA-MB-435
  GI50: 76.2 µM (inactive)
RXF 393
  GI50: 33.2 µM (inactive)
786-0
  GI50: 43 µM (inactive)
A549
  GI50: 50.5 µM (inactive)
OVCAR-4
  GI50: 38.5 µM (inactive)
HCT-15
  GI50: 72.8 µM
M14
  GI50: > 100 µM (inactive)

## O=c1[nH]nc(-c2ccccc2)n1/N=C/c1ccco1
SR
  GI50: > 100 µM (inactive)
NCI-H460
  GI50: > 100 µM (inactive)
CAKI-1
  GI50: > 100 µM (inactive)
SK-MEL-2
  GI50: > 100 µM (inactive)
MDA-N
  GI50: > 100 µM (inactive)
SK-MEL-28
  GI50: > 100 µM (inactive)
LOX IMVI
  GI50: > 100 µM (inactive)
OVCAR-8
  GI50: > 100 µM (inactive)
NCI/ADR-RES
  GI50: > 100 µM (inactive)
HOP-62
  GI50: > 100 µM (inactive)
SK-MEL-5
  GI50: > 100 µM (inactive)
BT-549
  GI50: 32.6 µM (inactive)
SF-295
  GI50: > 100 µM (inactive)
UACC-62
  GI50: 83.2 µM (inactive)
Malme-3M
  GI50: > 100 µM (inactive)
UO-31
  GI50: > 100 µM (inactive)
HT-29
  GI50: > 100 µM (inactive)
TK-10
  GI50: > 100 µM (inactive)
HL-60
  GI50: > 100 µM (inactive)
MCF7
  GI50: 0.0719 µM (active)
HOP-92
  GI50: > 100 µM (inactive)
IGROV-1
  GI50: > 100 µM (inactive)
SNB-75
  GI50: > 100 µM (inactive)
CCRF-CEM
  GI50: > 100 µM (inactive)
SF-539
  GI50: > 100 µM (inactive)
SNB-19
  GI50: > 100 µM (inactive)
Hs-578T
  GI50: > 100 µM (inactive)
U-251
  GI50: > 100 µM (inactive)
SK-OV-3
  GI50: > 100 µM (inactive)
NCI-H23
  GI50: > 100 µM (inactive)
ACHN
  GI50: > 100 µM (inactive)
SW-620
  GI50: > 100 µM (inactive)
NCI-H522
  GI50: > 100 µM (inactive)
SF-268
  GI50: > 100 µM (inactive)
EKVX
  GI50: > 100 µM (inactive)
SN12C
  GI50: 29.2 µM (inactive)
PC-3
  GI50: > 100 µM (inactive)
A498
  GI50: > 100 µM (inactive)
UACC-257
  GI50: > 100 µM (inactive)
MOLT-4
  GI50: > 100 µM (inactive)
T47D
  GI50: > 100 µM (inactive)
HCT-116
  GI50: > 100 µM (inactive)
OVCAR-5
  GI50: > 100 µM (inactive)
KM12
  GI50: > 100 µM (inactive)
OVCAR-3
  GI50: > 100 µM (inactive)
DU-145
  GI50: > 100 µM (inactive)
COLO 205
  GI50: > 100 µM (inactive)
MDA-MB-435
  GI50: > 100 µM (inactive)
RXF 393
  GI50: > 100 µM (inactive)
786-0
  GI50: > 100 µM (inactive)
A549
  GI50: > 100 µM (inactive)
OVCAR-4
  GI50: 30.1 µM (inactive)
HCT-15
  GI50: > 100 µM
M14
  GI50: > 100 µM (inactive)
